Patent US11739098B2 (BRISTOL-MYERS SQUIBB COMPANY, priority 2017, dated 2023)
Structures can show the parent of a compound that is named as a salt.

Columns and labels:
Assay type in all cases: cell-based
human TLR7 = target: T1, human TLR7 (Homo sapiens, UniProt Q9NYK1); assay: TLR7 inhibition reporter assay (HEK-Blue cells, SEAP reporter, gardiquimod stimulation); conditions: HEK-Blue cells overexpressing human TLR7, SEAP reporter, gardiquimod 7.5 μM
T1 construct: host or cells: HEK-Blue cells (HEK293-derived reporter line)
T1 sequence (Q9NYK1 27-1049): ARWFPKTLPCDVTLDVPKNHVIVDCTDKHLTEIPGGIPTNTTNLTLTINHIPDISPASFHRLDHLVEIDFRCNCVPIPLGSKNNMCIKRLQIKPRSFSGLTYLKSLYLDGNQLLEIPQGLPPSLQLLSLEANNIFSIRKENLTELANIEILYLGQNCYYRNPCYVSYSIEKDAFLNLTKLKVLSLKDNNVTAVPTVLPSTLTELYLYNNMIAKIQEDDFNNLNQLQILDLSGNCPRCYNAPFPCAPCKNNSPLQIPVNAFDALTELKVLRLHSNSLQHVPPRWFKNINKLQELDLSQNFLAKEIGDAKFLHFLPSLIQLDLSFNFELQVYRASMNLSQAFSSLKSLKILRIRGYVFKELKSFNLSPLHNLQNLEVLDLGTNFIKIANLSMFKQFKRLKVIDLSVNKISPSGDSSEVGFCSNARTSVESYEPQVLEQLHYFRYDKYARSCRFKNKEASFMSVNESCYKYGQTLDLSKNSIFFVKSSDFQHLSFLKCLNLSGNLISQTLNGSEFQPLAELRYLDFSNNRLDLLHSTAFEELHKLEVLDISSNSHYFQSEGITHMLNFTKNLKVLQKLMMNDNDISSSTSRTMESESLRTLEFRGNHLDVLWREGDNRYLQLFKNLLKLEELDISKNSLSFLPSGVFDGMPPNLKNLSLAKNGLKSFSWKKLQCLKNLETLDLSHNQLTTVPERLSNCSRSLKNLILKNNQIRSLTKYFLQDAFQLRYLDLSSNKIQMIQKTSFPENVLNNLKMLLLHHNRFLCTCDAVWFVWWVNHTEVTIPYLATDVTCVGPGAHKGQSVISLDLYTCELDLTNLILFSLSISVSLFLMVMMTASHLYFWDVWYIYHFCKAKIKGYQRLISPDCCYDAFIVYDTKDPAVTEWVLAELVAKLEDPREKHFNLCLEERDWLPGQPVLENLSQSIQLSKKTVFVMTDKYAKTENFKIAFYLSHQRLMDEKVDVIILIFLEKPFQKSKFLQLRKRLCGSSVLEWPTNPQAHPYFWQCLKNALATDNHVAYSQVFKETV
Method in brief: (§1)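 After 22 h at 37 °C, SEAP secretion was measured from human TLR7-, TLR8- or TLR9-expressing HEK-Blue reporter cells given compound (0.05 nM–50 μM) 30 min before agonist: 7.5 μM gardiquimod, 15.9 μM R848 or 5 nM ODN2006 respectively. Percent inhibition referenced to agonist-plus-DMSO and known-inhibitor wells.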

human TLR8 = target: T2, human TLR8 (Homo sapiens, UniProt Q9NR97); assay: TLR8 inhibition reporter assay (HEK-Blue cells, SEAP reporter, R848 stimulation); conditions: HEK-Blue cells overexpressing human TLR8, SEAP reporter, R848 15.9 μM
T2 construct: host or cells: HEK-Blue cells (HEK293-derived reporter line)
T2 sequence (Q9NR97 27-1041): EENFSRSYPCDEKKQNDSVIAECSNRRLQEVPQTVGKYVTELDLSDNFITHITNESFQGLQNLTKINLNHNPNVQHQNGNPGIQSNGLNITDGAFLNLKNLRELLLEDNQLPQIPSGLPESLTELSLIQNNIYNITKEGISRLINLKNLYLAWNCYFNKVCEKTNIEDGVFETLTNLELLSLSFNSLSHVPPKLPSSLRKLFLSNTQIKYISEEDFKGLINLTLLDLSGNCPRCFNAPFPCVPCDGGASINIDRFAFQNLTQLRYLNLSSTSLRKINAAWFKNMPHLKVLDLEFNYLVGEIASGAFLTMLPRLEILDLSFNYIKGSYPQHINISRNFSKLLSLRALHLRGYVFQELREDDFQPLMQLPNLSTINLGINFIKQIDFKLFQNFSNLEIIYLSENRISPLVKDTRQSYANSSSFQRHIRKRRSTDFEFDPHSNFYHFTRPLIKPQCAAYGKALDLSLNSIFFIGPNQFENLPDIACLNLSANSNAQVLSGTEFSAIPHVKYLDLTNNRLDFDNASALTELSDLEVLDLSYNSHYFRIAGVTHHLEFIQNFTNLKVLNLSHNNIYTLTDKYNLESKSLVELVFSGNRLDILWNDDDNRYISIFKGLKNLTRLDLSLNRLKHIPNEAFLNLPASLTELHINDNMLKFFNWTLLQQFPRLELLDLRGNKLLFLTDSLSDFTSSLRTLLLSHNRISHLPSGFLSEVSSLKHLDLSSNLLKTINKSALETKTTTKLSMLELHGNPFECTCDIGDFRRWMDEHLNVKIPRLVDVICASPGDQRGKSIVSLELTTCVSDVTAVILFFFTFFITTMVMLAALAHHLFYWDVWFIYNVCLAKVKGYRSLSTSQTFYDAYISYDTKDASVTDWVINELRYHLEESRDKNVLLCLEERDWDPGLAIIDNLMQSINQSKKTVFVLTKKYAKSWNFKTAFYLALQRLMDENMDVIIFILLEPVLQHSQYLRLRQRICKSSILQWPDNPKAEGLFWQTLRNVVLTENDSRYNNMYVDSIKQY
Method in brief: as §1

human TLR9 = target: T3, human TLR9 (Homo sapiens, UniProt Q9NR96); assay: TLR9 inhibition reporter assay (HEK-Blue cells, SEAP reporter, ODN2006 stimulation); conditions: HEK-Blue cells overexpressing human TLR9, SEAP reporter, ODN2006 5 nM
T3 construct: host or cells: HEK-Blue cells (HEK293-derived reporter line)
T3 sequence (Q9NR96 26-1032): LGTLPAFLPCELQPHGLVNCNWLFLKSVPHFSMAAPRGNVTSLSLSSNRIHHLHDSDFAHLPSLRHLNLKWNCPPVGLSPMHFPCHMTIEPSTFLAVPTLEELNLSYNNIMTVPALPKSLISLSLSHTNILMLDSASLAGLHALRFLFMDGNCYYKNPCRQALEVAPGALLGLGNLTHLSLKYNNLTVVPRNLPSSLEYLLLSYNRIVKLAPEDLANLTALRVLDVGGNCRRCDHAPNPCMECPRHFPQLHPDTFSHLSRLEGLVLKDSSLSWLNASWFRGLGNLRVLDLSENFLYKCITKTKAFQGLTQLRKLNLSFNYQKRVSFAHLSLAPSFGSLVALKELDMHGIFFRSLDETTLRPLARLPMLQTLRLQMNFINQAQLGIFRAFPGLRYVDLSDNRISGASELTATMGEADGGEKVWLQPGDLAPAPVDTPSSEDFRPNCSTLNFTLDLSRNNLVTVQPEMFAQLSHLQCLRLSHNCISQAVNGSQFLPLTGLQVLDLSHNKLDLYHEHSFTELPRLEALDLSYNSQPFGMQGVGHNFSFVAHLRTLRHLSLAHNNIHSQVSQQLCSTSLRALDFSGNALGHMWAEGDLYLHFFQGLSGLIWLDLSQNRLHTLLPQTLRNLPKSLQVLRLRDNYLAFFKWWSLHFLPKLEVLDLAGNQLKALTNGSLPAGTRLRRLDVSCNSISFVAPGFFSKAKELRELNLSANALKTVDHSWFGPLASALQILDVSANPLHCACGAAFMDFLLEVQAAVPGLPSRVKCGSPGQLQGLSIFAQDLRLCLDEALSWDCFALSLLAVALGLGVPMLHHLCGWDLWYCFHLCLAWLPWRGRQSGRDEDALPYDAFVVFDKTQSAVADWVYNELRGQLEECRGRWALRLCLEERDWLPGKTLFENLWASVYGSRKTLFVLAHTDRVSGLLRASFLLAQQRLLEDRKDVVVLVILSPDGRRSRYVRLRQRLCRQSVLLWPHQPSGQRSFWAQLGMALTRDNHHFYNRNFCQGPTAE
Method in brief: as §1

Row | IC50 (human TLR7) | IC50 (human TLR8) | IC50 (human TLR9) | SMILES
1 | > 50 µM | > 50 µM | 1 to 50 µM | CCc1c(-c2cccc3c2cnn3C)[nH]c2ccc(C3CCN(C(=O)CN[C@H]4CC[C@@H](N)CC4)CC3)cc12 [Example 519, 2-(((1s,4s)-4-aminocyclohexyl)amino)-1-(4-(3-ethyl-2-(1-methyl-1H-indazol-4-yl)-1H-indol-5-yl)piperidin-1-yl)ethan-1-one]
2 | < 0.1 µM | < 0.1 µM | 0.1 to 1 µM | CCc1c(C)c(-c2[nH]c3ccc(C4CCN(CC(C)(C)O)CC4)cc3c2C(C)C)cn2ccnc12 [Example 777, 1-(4-(2-(8-ethyl-7-methylimidazo[1,2-a]pyridin-6-yl)-3-isopropyl-1H-indol-5-yl)piperidin-1-yl)-2-methylpropan-2-ol]
3 | 0.1 to 1 µM | 0.1 to 1 µM | 1 to 50 µM | CNC(=O)CN1CCC(c2ccc3[nH]c(-c4ccn5cnnc5c4)c(C(C)C)c3c2)CC1 [Example 306, 2-(4-(2-([1,2,4]triazolo[4,3-a]pyridin-7-yl)-3-isopropyl-1H-indol-5-yl)piperidin-1-yl)-N-methylacetamide]
4 | < 0.1 µM | < 0.1 µM | 1 to 50 µM | CNC(=O)CN1CCC(c2ccc3[nH]c(-c4nn5ncnc5c(OC)c4C)c(C(C)C)c3c2)CC1 [Example 281, 2-(4-(3-isopropyl-2-(8-methoxy-7-methyl-[1,2,4]triazolo[1,5-b]pyridazin-6-yl)-1H-indol-5-yl)piperidin-1-yl)-N-methylacetamide]
5 | > 3.13 µM | > 3.13 µM | 1 to 50 µM | Cc1cc2cc(-c3[nH]c4ccc(C5CCNCC5)cc4c3C(C)C)cc(CC(C)C)n2n1 [Example 144, 7-isobutyl-5-(3-isopropyl-5-(piperidin-4-yl)-1H-indol-2-yl)-2-methylpyrazolo[1,5-a]pyridine]
6 | < 0.1 µM | < 0.1 µM | 1 to 50 µM | CC(C)c1c(-c2cnc3ncnn3c2)[nH]c2ccc(C3CCN(C4CCS(=O)(=O)CC4)CC3)cc12 [Example 798, 4-(4-(2-([1,2,4]triazolo[1,5-a]pyrimidin-6-yl)-3-isopropyl-1H-indol-5-yl)piperidin-1-yl)tetrahydro-2H-thiopyran 1,1-dioxide]
7 | < 0.1 µM | < 0.1 µM | 1 to 50 µM | CC(C)c1c(-c2ccn3nccc3c2)[nH]c2ccc(C3CCN(CC(=O)N(C)C)CC3)cc12 [Example 441, 2-(4-(3-isopropyl-2-(pyrazolo[1,5-a]pyridin-5-yl)-1H-indol-5-yl)piperidin-1-yl)-N,N-dimethylacetamide]
8 | 1 to 50 µM | > 3.13 µM | 0.1 to 1 µM | CNCCN1CCC(c2ccc3[nH]c(-c4ccc5ncccc5c4)c(C)c3c2)CC1 [Example 666, N-methyl-2-(4-(3-methyl-2-(quinolin-6-yl)-1H-indol-5-yl)piperidin-1-yl)ethan-1-amine]
9 | < 0.1 µM | < 0.1 µM | 1 to 50 µM | Cc1cc(-c2[nH]c3ccc(C4CCN(CC(C)(C)O)CC4)cc3c2C(C)C)cn2nnnc12 [Example 745, 1-(4-(3-isopropyl-2-(8-methyltetrazolo[1,5-a]pyridin-6-yl)-1H-indol-5-yl)piperidin-1-yl)-2-methylpropan-2-ol, TFA]
10 | < 0.1 µM | 0.1 to 1 µM | 1 to 50 µM | Cc1cc(-c2[nH]c3ccc(C4CCNCC4)cc3c2C(C)C)cc2nccnc12 [Example 88, 7-(3-isopropyl-5-(piperidin-4-yl)-1H-indol-2-yl)-5-methylquinoxaline]
11 | < 0.1 µM | < 0.1 µM | 1 to 50 µM | Cc1c(-c2[nH]c3ccc(C4CCNCC4)cc3c2C(C)C)ccc2c1cnn2C [Example 94, 5-(3-isopropyl-5-(piperidin-4-yl)-1H-indol-2-yl)-1,4-dimethyl-1H-indazole]
12 | 0.1 to 1 µM | 1 to 50 µM | 1 to 50 µM | CC(C)c1c(-c2cnc3[nH]ccc3c2)[nH]c2ccc(C3CCN(C(=O)CN(C)C)CC3)cc12 [Example 563, 2-(dimethylamino)-1-(4-(3-isopropyl-2-(1H-pyrrolo[2,3-b]pyridin-5-yl)-1H-indol-5-yl)piperidin-1-yl)ethan-1-one]
